Paper PMC12045974, “T cell toxicity induced by tigecycline binding to the mitochondrial ribosome” (Nature Communications, 2025)
Where “and” joins values, the source holds several entries; their conditions need not be identical. Equal values may be shown once.

Key:
Assay type in all cases: cell-based, human
[1] = system: CD4+ and CD8+ T cells within PBMCs; assay: T cell proliferation by flow cytometry (CTV/CFSE dilution) in stimulated PBMCs
Procedure: (§1) After thawing frozen PBMCs, cells were washed with RPMI complemented with 10% FBS, 2.05 mM L-glutamine (Sigma), and 55 μM 2-ME (Gibco) and rested at 37 °C (5% CO2) for 30 min. 250,000 cells per well were seeded in 96-well U-bottom plates with/without Human T-Activator CD3/CD28 beads (Invitrogen) at a 1:1 ratio and 10 ng/ml IL-2 (Proteintech) in RPMI-1640 medium mentioned above. At the same time, antibiotics were added. For the short-term activation assay, cells were harvested 18 h post-stimulation and stained with Aqua fixable live/dead dye (Invitrogen) and surface markers. For the proliferation assays, cells were stained with CFSE (eBioscience) or Cell Trace Violet (ThermoFisher Scientific) dyes before seeding and stimulation, according to the manufacturer’s recommendations. For TCR priming experiments, tigecycline was added at 0, 24 or 72 h post-activation. For mitochondrial mass measuring, cells were stained with Mitotracker Green Fm Dye (Thermo Fisher Scientific) after incubation with Tigecycline. After incubation for 6 days with a half medium (complete, with antibiotics and IL-2) change after 3 days, cells were harvested via centrifugation, and stained with live/dead dye and surface markers for analysis by flow cytometry. The Foxp3/Transcription Factor Staining Buffer Set (Invitrogen) was used to fix cells according to the manufacturer’s instructions. The FACS gating strategy is shown in Supplementary Fig. 2D. Flow cytometry was carried out on a BD Celesta (BD Biosciences) and analyzed in FlowJo (TreeStar) software.

[2] = system: CD4+ T cell subsets (Tn, Tcm, Tem); assay: Proliferation of FACS-isolated naive, central memory and effector memory CD4+ T cells
Procedure: Thawed PBMCs were washed with RPMI complemented with 10% FBS, 2.05 mM L-glutamine (Sigma), and 55 μM 2-ME (Gibco) before resting at 37 °C (5% CO2) for 30 min. After counting, cells were resuspended in FACS buffer at a density of 5 × 10^7 cells/ml. CD4^+ T cells were isolated using CD4^+ T cell negative isolation kits (Miltenyi Biotech) and enriched using CD4^+ T cell Enrichment kits (Miltenyi Biotech). Purified CD4^+ T cells were counted and stained with CTV dye and live/dead dye. Subsequently, surface makers were stained at 4 °C in FACS buffer (DPBS + 2% FBS). The following panels were used to classify human T CD4^+ cells from the live lymphocyte gate: naïve CD4^+ T cells: Aqua^-CD4^+CD45RA^+CD27^+; central memory CD4^+ T cells: Aqua^-CD4^+CD45RA^-CD27^+, effector memory CD4^+ T cells: Aqua^-CD4^+CD45RA^-CD27^-. After staining, cells were washed, resuspended and sorted using a FACSAria Fusion (BD Biosciences). Sorted cells were collected into PBS complemented with 2% FBS at 4 °C. Cells were then harvested via centrifugation and resuspended in RPMI-1640 ( + 10% FBS, 2.05 mM L-glutamine (Sigma), and 55 μM 2-ME (Gibco) before counting. Sorted CD4^+ subsets were counted and 85,000 cells per well seeded onto 96-well U-bottom plates with/without Human T-Activator CD3/CD28 beads (Invitrogen) at a 1:2.8 cell:bead ratio and 10 ng/ml IL-2 (Proteintech) in RPMI-1640 ( + 10% FBS, 2.05 mM L-glutamine (Sigma), and 55 μM 2-ME (Gibco). At the same time, tigecycline in serial concentrations (from 2.5 to 10 μM) was added. A half medium change took place after 3 days, and cells were harvested after 6 days for flow cytometry. Antibodies used in the study are presented in Supplementary Table 2.

CD4+ and CD8+ T cells = assay: Mitochondrial mass by MitoTracker Green staining; settings: for mitochondrial mass (MitoTracker Green): 10 μM, after 24 h or 7 days of treatment
Procedure: as §1

Compound: CN(C)c1cc(NC(=O)CNC(C)(C)C)c(O)c2c1C[C@H]1C[C@H]3[C@H](N(C)C)C(O)=C(C(N)=O)C(=O)[C@@]3(O)C(O)=C1C2=O [Tigecycline, tigecycline]
- T cell culture proliferation ([1]; 10 μM administered 24 or 72 h after TCR stimulation): significantly reduce
- T cell proliferation ([1]; CD4+ and CD8+ T cells within PBMCs, 6 days of anti-CD3/CD28 stimulation + IL-2): dose-dependent reductions in proliferation
- % Cells in division 4 or later ([1]; CD4, 0H): 0.15% and 0.18% and 0.39%
- % Cells in each division ([1]; CD4, 0H, division number 1): 23.9% and 13% and 15.5%
- % Cells in each division ([1]; CD4, 0H, division number 2): 20.2% and 38.4% and 32.9%
- % Cells in each division ([1]; CD4, 0H, division number 4): 0.42% and 2.83% and 5.88%
- % Cells in each division ([1]; CD4, 0H, division number 5): 0% and 0.019% and 0.22%
- % Cells in each division ([1]; CD4, 0H, division number 6): 0%
- % Cells in each division ([1]; CD4, 0H, division number 7): 0%
- % Cells in division 4 or later ([1]; CD4, 10μM, 6 days, CTV dilution in live cells): 6.485% and 4.27% and 0.862% and 2.104% and 3.325%
- % Cells in division 4 or later ([1]; CD4, 24H): 0.21% and 0.19% and 0.9%
- % Cells in each division ([1]; CD4, 24H, division number 2): 18.2% and 32.4% and 28.8%
- % Cells in each division ([1]; CD4, 24H, division number 5): 0.044% and 0.15% and 0.38%
- % Cells in each division ([1]; CD4, 24H, division number 6): 0% and 0.01%
- % Cells in each division ([1]; CD4, 24H, division number 7): 0%
- % Cells in each division ([1]; CD4, 72H, division number 3): 22.6% and 24.4% and 18.1%
- % Cells in each division ([1]; CD4, 72H, division number 6): 1.08% and 0.32% and 1.2%
- % Cells in each division ([1]; CD4, 72H, division number 7): 0%
- % Cells in division 4 or later ([1]; CD8, 0H): 0.42% and 2.88% and 6.11%
- % Cells in each division ([1]; CD8, 0H, division number 1): 38.7% and 31.7%
- % Cells in each division ([1]; CD8, 0H, division number 2): 25.1% and 40.8% and 45.6%
- % Cells in each division ([1]; CD8, 0H, division number 3): 4.86% and 6.4% and 12.3%
- % Cells in each division ([1]; CD8, 0H, division number 4): 0.15% and 0.18% and 0.36%
- % Cells in each division ([1]; CD8, 0H, division number 5): 0% and 0.019%
- % Cells in each division ([1]; CD8, 0H, division number 6): 0%
- % Cells in each division ([1]; CD8, 0H, division number 7): 0%
- % Cells in division 4 or later ([1]; CD8, 2.5μM, 6 days, CTV dilution in live cells): 47.18% and 43.35% and 55.18% and 63.83% and 48.432%
- % Cells in division 4 or later ([1]; CD8, 10μM, 6 days, CTV dilution in live cells): 6.12% and 2.26% and 7.121% and 11.81% and 6.155%
- % Cells in each division ([1]; CD8, 24H, division number 1): 36.2% and 37.7% and 34%
- % Cells in each division ([1]; CD8, 24H, division number 2): 22.1% and 39.5% and 41.6%
- % Cells in each division ([1]; CD8, 24H, division number 3): 4.04% and 8.22% and 12.9%
- % Cells in each division ([1]; CD8, 24H, division number 4): 0.19% and 0.87%
- % Cells in each division ([1]; CD8, 24H, division number 5): 0.018% and 0% and 0.019%
- % Cells in each division ([1]; CD8, 24H, division number 6): 0%
- % Cells in each division ([1]; CD8, 24H, division number 7): 0%
- % Cells in each division ([1]; CD8, 72H, division number 0): 1.06% and 7.49% and 1.18%
- % Cells in each division ([1]; CD8, 72H, division number 2): 24.9% and 34.1% and 20.9%
- % Cells in each division ([1]; CD8, 72H, division number 3): 45.1% and 28.9% and 40.2%
- % Cells in each division ([1]; CD8, 72H, division number 5): 2.16% and 0.67% and 3.66%
- % Cells in each division ([1]; CD8, 72H, division number 6): 0.03% and 0.025% and 0.033%
- % Cells in each division ([1]; CD8, 72H, division number 7): 0%
- proliferation of naive, central memory and effector memory CD4+ T cells ([2]; 10 μM, 6 days): significantly inhibited the proliferation of all subsets
- % Cells in each division ([2]; Naïve, 2.5μM, division number 0): 4.49% and 2.85% and 0.99%
- % Cells in each division ([2]; Naïve, 2.5μM, division number 2): 44.1% and 38.6% and 39.3%
- % Cells in each division ([2]; Naïve, 2.5μM, division number 5): 0.076% and 0.28% and 0.23%
- % Cells in each division ([2]; Naïve, 2.5μM, division number 6): 0.17% and 0.1% and 0.16%
- % Cells in each division ([2]; Naïve, 2.5μM, division number 7): 0.25% and 0.12%
- % Cells in each division ([2]; Naïve, 5μM, division number 0): 3.52% and 9.14% and 5.5%
- % Cells in each division ([2]; Naïve, 5μM, division number 1): 30.8% and 43.7% and 27.9%
- % Cells in each division ([2]; Naïve, 5μM, division number 2): 51%
- % Cells in each division ([2]; Naïve, 5μM, division number 5): 0.058% and 0.021% and 0.055%
- % Cells in each division ([2]; Naïve, 5μM, division number 6): 0.28% and 0.21% and 0.25%
- % Cells in each division ([2]; Naïve, 5μM, division number 7): 0.45% and 0.34% and 0.31%
- % Cells in each division ([2]; Naïve, 10μM, division number 0): 20.7% and 12.2% and 12.7%
- % Cells in each division ([2]; Naïve, 10μM, division number 1): 58.7% and 45.6% and 58.3%
- % Cells in each division ([2]; Naïve, 10μM, division number 2): 19.7% and 37.8% and 26.9%
- % Cells in each division ([2]; Naïve, 10μM, division number 5): 0% and 0.056% and 0.037%
- % Cells in each division ([2]; Naïve, 10μM, division number 6): 0.22% and 0.27% and 0.31%
- % Cells in each division ([2]; Naïve, 10μM, division number 7): 0.47% and 0.48% and 0.72%
- % Cells in each division ([2]; TCM, 2.5μM, division number 0): 11.5% and 6.18% and 6.94%
- % Cells in each division ([2]; TCM, 2.5μM, division number 1): 38% and 27.5% and 31.5%
- % Cells in each division ([2]; TCM, 2.5μM, division number 2): 33.5% and 37.9% and 38.1%
- % Cells in each division ([2]; TCM, 2.5μM, division number 5): 0.31% and 0.62% and 0.44%
- % Cells in each division ([2]; TCM, 2.5μM, division number 6): 0.5% and 0.64% and 0.43%
- % Cells in each division ([2]; TCM, 2.5μM, division number 7): 0.62% and 0.7%
- % Cells in each division ([2]; TCM, 5μM, division number 0): 31.4% and 19.3% and 18.6%
- % Cells in each division ([2]; TCM, 5μM, division number 1): 46.4% and 46.1% and 47.3%
- % Cells in each division ([2]; TCM, 5μM, division number 2): 17% and 26.2% and 27.6%
- % Cells in each division ([2]; TCM, 5μM, division number 5): 0.095% and 0.16% and 0.1%
- % Cells in each division ([2]; TCM, 5μM, division number 6): 0.58% and 0.85% and 0.47%
- % Cells in each division ([2]; TCM, 5μM, division number 7): 1.11% and 1.15% and 0.74%
- % Cells in each division ([2]; TCM, 10μM, division number 0): 51.5% and 35.3% and 35.1%
- % Cells in each division ([2]; TCM, 10μM, division number 1): 39.1% and 48.8% and 52.5%
- % Cells in each division ([2]; TCM, 10μM, division number 2): 6.84% and 12.8% and 10.7%
- % Cells in each division ([2]; TCM, 10μM, division number 5): 0.11% and 0.14% and 0.05%
- % Cells in each division ([2]; TCM, 10μM, division number 6): 0.69% and 0.83% and 0.56%
- % Cells in each division ([2]; TCM, 10μM, division number 7): 1.26% and 0.83%
- mitochondrial mass (MitoTracker Green) (CD4+ and CD8+ T cells): no significant changes in mitochondrial mass
- mitochondrial mass (MitoTracker Green) (CD4+ and CD8+ T cells; listed as tigecyline): comparable mitochondrial mass
- mitochondrial mass relative to Unstim (=1), sheet sFig-1E+F (CD4+ and CD8+ T cells; 24H, CD4, Stim-10µM, per PBMC donor): 1.522 and 1.33 and 0.8198
- mitochondrial mass relative to Unstim (=1), sheet sFig-1E+F (CD4+ and CD8+ T cells; 24H, CD4, Unstim-10µM, per PBMC donor): 1.004 and 0.6673 and 1.041
- mitochondrial mass relative to Unstim (=1), sheet sFig-1E+F (CD4+ and CD8+ T cells; 24H, CD8, Unstim-10µM, per PBMC donor): 0.5804 and 1.017 and 1.063
- mitochondrial mass relative to Unstim (=1), sheet sFig-1E+F (CD4+ and CD8+ T cells; 7 days, CD4, STI 24H, per PBMC donor): 2.7235 and 3.361 and 2.725
- mitochondrial mass relative to Unstim (=1), sheet sFig-1E+F (CD4+ and CD8+ T cells; 7 days, CD4, STI 72H, per PBMC donor): 2.708 and 3.517 and 2.769
- mitochondrial mass relative to Unstim (=1), sheet sFig-1E+F (CD4+ and CD8+ T cells; 7 days, CD4, Stim-10µM, per PBMC donor): 2.414 and 2.323 and 2.6393
- mitochondrial mass relative to NO STI (=1), sheet sFig-1E+F (CD4+ and CD8+ T cells; 7 days, CD8, STI-10µM, per PBMC donor): 1.791 and 3.1924 and 2.433
